Earlier results in patent US20070010426A1, “Composition for preventing and treating cardiovascular disorders” (Maxluck Biotechnology Corp., priority 2005, published 2007).

Test system: obese mouse

In the case of chromium picolinate, the “Effect on blood lipids” value is listed as “reduce the blood lipids”.
